Earlier results as cited in patent publication US20210346549A1, “Non-Contact Sanitizing Products and Elements” (Segan Industries, Inc., priority 2020, published 2021).

Assays:
[1] = vaccine content versus toxic quantity
[2] = system: vegetative bacteria; settings: gas-aerosol concentration of 15 to 20 mg/m3, relative humidity of about 80%
[3] = system: bacterial spores; settings: gas-aerosol concentration of 15 to 20 mg/m3, relative humidity of about 80%
[4] = system: coronavirus 229E; settings: 1-minute contact time; free chlorine concentration of 1,000 ppm and 5,000 ppm
[5] = system: sporicidal, bactericidal, virulcide, and fungicidal; settings: low concentrations

C=O [formaldehyde]
quantity present in vaccines lower than that necessary to induce toxicity in experimental animals [1]: at least 600 fold

O=CCCCC=O [glutaraldehyde]
decimal reduction time [2]: less than 5 min | decimal reduction time [3]: less than 45 min

OCl [sodium hypochlorite]
virucidal efficacy against coronavirus 229E [4]: effective

CC(=O)OO [Peracetic acid]
concentration at which sporicidal, bactericidal, virulcide, and fungicidal [5]: < 0.3%
